According to publication PMC10824666 (Nature Cancer, 2023):
Read-outs that look alike come from different tables or passages of the source.

Assays:
Assay in all cases: biochemical
Set-up in all cases: Eurofins DiscoverX kinase panel, competitive binding assay at 1 uM, percent of DMSO control
Conditions in all cases: competitive binding, percent of DMSO control
MAP4K4 = MAP4K4 (Homo sapiens, UniProt O95819)
Method: (§1) Extended Data Fig. 3 In vitro characterization of potent and selective KIF18A inhibitors. a, KIF18A compounds (1 µM) were assessed across a panel of kinases (n = 96) by a competitive binding assay. Graph presented as percentage of control (POC); dashed line indicates POC value of 30 (n = 1 experiment). b, Tubulin polymerization analysis. Profile of KIF18A compounds (10 µM) relative to DMSO, paclitaxel (5 µM, tubulin stabilizer), or nocodazole (5 µM, tubulin destabilizer). Graphs presented as tubulin fluorescence signal at 440 nm expressed as arbitrary units (a.u.) versus time (min) with area-under-the-curve (AUC) values (n = 1 or 3 independent experiments). c, Mitotic spindle image analysis. […] Representative images were captured with x40 objective (scale bar = 10 µm) (n = 1 experiment). d-f, KIF18A compound effects on HeLa cells. d, Cells were treated for 96 h with DMSO or KIF18A compounds at the indicated concentrations. KIF18A compound concentration-response profiles presented as count relative to the percentage of DMSO control (POC) with count EC50 values (n = 2 independent experiments in duplicate). e, KIF18A protein localization in cells after treatment for 6 hours with DMSO or AM-1882 (0.05 µM). Cells stained to detect DNA, KIF18A, and centrin-3. Representative images of mitotic cells (n = 3 per group) were captured with x60 objective (scale bar = 5 µm) and graphs of line scan measurements were obtained for DNA, KIF18A, and centrin-3 channels expressed as fluorescence intensity (a.u.) versus distance (µm) (n = 1 experiment). f, Mitotic cell fate imaging analysis. HeLa Kyoto cells co-expressing α-tubulin-EGFP and H2B-mCherry proteins released from a G1S block in media containing DMSO or AM-1882 (0.2 µM). Analysis was performed on cells entering the first mitosis (n = 40 cells per group). Graph presented as time in mitosis (h) versus mitotic cell fate, either complete cell division (CCD) or death in mitosis (DiM). Classified cells exiting mitosis by the number of daughter cells and cell death in […] We screened a small-molecule library of diverse compounds for selective inhibitors of KIF18A MT-ATPase motor activity. Two compound hits were discovered that phenocopied the effects of KIF18A KD in cells; these hits are structurally distinct from the KIF18A inhibitor BTB-1 (refs. [27],[28]). […] However, the potency of the KIF18A inhibitors was unaffected by varying ATP and MT concentrations (Extended Data Fig. 2d). This supports our proposed model in which KIF18A inhibitors occupy an allosteric pocket formed by motor helices α4 and α6 close to the motor MT-binding surface. To screen for potential off-target interactions with essential mitotic kinases, three of the KIF18A compounds were profiled against a large panel of kinases. […] We next investigated whether our KIF18A inhibitors affected tubulin polymerization in vitro in the absence of the KIF18A motor. All four KIF18A compounds had tubulin-polymerization profiles similar to that of the DMSO control and distinct from those of the paclitaxel (MT stabilizer) and nocodazole (MT destabilizer) co

MARK1 = MARK1 (Homo sapiens, UniProt Q9P0L2)
Method: as §1

TBK1 = target: T1, TBK1 (Homo sapiens, UniProt Q9UHD2)
T1 sequence (Q9UHD2 1-729): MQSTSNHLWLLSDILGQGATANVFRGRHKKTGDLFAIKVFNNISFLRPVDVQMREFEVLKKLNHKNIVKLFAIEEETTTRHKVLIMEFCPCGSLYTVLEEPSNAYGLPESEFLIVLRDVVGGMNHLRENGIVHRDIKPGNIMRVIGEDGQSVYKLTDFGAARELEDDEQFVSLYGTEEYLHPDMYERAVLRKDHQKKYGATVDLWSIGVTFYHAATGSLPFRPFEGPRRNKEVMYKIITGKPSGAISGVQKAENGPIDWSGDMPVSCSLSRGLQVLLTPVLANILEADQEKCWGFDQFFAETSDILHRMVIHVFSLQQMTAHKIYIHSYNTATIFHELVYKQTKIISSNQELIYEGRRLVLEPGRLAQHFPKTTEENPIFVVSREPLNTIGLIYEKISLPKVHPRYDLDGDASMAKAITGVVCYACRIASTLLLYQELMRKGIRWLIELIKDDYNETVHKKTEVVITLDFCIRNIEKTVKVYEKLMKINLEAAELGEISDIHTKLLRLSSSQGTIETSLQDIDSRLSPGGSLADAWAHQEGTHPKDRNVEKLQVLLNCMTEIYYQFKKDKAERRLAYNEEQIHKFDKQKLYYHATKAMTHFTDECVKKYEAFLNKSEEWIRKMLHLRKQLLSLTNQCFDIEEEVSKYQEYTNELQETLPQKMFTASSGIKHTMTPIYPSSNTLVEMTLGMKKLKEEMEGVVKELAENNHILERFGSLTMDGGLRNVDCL
Method: as §1

SRC = SRC (Homo sapiens, UniProt P12931)
Method: as §1

GRK1 = target: T2, GRK1 (Homo sapiens, UniProt Q15835)
T2 sequence (Q15835 1-563): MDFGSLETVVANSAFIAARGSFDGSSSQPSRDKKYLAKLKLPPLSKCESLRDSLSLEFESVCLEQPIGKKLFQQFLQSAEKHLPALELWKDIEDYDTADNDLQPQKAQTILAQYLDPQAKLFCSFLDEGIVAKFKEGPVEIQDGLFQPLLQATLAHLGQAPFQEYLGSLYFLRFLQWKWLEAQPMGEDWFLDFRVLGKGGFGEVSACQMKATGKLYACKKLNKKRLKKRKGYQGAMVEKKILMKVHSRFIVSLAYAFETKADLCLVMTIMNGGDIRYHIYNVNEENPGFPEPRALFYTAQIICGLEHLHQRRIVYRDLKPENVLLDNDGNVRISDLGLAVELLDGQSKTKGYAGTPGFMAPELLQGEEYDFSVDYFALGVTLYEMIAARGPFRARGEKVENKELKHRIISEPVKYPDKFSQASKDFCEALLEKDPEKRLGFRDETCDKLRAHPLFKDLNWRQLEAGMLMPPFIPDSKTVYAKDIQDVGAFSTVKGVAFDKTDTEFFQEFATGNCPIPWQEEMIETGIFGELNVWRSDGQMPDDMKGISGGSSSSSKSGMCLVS
Method: as §1

[1] = read-out: Kinome Profiling performed by Eurofins DiscoverX / AM-1882, 1.0 µM / POC
[2] = read-out: Kinome Profiling performed by Eurofins DiscoverX / AM-0277, 1.0 µM / POC
[3] = read-out: Kinome Profiling performed by Eurofins DiscoverX / AM-5308, 1.0 µM / POC

Sequence of MARK1 (Q9P0L2 whole entry): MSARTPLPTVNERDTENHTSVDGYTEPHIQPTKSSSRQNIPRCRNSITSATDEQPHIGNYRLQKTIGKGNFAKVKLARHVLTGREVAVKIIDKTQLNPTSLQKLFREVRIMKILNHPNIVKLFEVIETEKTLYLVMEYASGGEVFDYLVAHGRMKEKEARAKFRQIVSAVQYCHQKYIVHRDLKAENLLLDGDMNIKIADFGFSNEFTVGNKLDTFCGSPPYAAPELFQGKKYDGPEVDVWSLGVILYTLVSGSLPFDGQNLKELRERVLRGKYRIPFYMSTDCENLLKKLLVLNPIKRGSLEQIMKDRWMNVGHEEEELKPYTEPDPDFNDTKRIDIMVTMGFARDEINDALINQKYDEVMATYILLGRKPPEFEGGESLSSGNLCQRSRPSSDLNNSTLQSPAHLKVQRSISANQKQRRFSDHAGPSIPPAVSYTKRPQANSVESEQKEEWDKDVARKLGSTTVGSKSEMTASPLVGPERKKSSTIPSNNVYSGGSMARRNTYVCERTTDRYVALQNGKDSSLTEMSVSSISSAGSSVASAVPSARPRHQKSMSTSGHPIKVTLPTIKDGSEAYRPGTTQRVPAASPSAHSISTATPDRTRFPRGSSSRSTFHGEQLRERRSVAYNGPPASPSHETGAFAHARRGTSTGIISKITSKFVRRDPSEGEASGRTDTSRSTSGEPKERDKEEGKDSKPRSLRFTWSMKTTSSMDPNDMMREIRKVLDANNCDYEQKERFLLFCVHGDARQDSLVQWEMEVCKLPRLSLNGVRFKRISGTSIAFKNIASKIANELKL
Sequence of SRC (P12931 whole entry): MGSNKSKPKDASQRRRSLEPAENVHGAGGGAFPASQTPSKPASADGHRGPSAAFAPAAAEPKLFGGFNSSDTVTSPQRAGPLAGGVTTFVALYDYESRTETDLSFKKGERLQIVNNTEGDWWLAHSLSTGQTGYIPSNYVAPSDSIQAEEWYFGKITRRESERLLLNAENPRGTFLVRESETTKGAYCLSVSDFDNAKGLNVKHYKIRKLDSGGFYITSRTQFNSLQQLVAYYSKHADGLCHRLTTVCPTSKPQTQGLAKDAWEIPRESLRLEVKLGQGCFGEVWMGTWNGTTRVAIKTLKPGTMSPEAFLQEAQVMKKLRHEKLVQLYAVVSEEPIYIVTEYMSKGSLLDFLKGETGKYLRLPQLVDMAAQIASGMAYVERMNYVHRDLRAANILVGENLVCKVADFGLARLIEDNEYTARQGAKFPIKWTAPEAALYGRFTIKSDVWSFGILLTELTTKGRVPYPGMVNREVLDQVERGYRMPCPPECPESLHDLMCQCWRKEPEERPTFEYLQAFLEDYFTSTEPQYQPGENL
Sequence of MAP4K4 (O95819 whole entry): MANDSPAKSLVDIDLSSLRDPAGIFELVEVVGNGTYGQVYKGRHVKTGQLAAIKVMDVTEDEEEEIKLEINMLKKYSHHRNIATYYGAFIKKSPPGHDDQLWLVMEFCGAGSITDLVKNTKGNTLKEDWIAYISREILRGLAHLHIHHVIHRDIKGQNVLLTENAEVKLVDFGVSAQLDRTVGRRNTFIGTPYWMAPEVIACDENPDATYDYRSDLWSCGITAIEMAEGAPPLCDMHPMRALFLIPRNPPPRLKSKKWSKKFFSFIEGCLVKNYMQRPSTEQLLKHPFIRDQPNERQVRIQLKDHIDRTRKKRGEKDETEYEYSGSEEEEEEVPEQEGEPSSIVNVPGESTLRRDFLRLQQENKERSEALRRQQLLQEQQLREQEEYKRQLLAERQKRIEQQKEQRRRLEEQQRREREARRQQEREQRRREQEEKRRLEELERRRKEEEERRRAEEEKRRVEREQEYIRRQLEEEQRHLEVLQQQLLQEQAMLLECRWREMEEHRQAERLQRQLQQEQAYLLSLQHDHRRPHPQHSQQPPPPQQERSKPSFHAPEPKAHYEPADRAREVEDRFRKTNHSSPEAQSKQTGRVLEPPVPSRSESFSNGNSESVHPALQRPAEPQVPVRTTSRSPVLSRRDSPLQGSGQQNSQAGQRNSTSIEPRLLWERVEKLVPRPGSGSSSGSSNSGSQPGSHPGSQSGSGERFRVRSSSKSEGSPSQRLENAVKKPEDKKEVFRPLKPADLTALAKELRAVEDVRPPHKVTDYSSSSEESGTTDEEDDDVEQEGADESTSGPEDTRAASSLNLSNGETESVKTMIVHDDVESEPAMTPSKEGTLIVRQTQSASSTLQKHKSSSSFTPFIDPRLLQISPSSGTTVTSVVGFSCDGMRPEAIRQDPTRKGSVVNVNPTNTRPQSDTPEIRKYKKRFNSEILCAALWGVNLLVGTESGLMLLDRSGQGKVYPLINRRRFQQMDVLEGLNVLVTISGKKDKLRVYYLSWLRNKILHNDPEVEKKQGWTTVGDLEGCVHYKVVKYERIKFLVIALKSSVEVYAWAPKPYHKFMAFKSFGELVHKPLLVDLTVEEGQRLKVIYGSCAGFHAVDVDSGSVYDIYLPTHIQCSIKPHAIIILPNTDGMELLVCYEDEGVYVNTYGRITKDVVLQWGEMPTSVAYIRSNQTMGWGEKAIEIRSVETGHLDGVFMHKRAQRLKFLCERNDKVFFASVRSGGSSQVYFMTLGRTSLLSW

CC(C)(C)NS(=O)(=O)c1cccc(NC(=O)c2ccc(S(=O)(=O)NC(C)(C)C)cc2N2CCC3(CC2)CC3)c1 [AM-1882]
remaining activity at 1 µM (MAP4K4; [1]): 95%
remaining activity at 1 µM (MARK1; [1]): 100%
remaining activity at 1 µM (TBK1; [1]): 82%
remaining activity at 1 µM (SRC; [1]): 98%
remaining activity at 1 µM (GRK1; [1]): 98.5%

CC(C)(CO)Nc1ccc(C(=O)Nc2cccc(S(=O)(=O)C3CCCC3)c2)c(N2CCC3(CC2)CC3)n1 [AM-0277]
remaining activity at 1 µM (MAP4K4; [2]): 100%
remaining activity at 1 µM (MARK1; [2]): 96%
remaining activity at 1 µM (TBK1; [2]): 87%
remaining activity at 1 µM (SRC; [2]): 89%
remaining activity at 1 µM (GRK1; [2]): 81%

C[C@@H]1CN(c2cccc(NC(=O)c3ccc(NS(=O)(=O)CCO)cc3N3CCC4(CC3)CC4)n2)CCO1 [AM-5308]
remaining activity at 1 µM (MAP4K4; [3]): 75%
remaining activity at 1 µM (MARK1; [3]): 98.5%
remaining activity at 1 µM (TBK1; [3]): 100%
remaining activity at 1 µM (SRC; [3]): 96.5%
remaining activity at 1 µM (GRK1; [3]): 91%
